Consider 22 compounds from patent publication US20240199635A1, “TETRAHYDROTHIENO PYRIDINE DERIVATIVES AS DDRS INHIBITORS” (CHIESI FARMACEUTICI S.P.A., priority 2021, published 2024).

For one assay, the target named is DDR2 (Homo sapiens (Human), UniProt Q16832). Briefly: DDR2 binding assay (LanthaScreen Europium Kinase Binding assay). The procedure: (§1) DDR1 and DDR2 binding assays were performed using Life Technologies LanthaScreen™ Europium Kinase Binding assay. The compounds were incubated with 5 nM DDR1 (Carna Biosciences) or 5 nM DDR2 (Life Technologies) for 1 hour at room temperature in white 384-well OptiPlate (PerkinElmer), containing 20 nM or 10 nM Kinase Tracer 178 respectively and 2 nM Europium labelled anti-GST antibody (Life Technologies) in assay buffer (50 mM HEPES pH 7.5, 10 mM MgCl2, 1 mM EGTA and 0.01% BRIJ35).
(§2) The ratio of fluorescence emission 665 nm/615 nm after excitation at 340 nm was obtained using the Tecan Spark 20M plate reader. IC50 values were determined in GraphPad Prism 7.0 software, using 4 parameter model: log(inhibitor) vs. response. IC50 values were converted in Ki using the Cheng-Prusoff equation (Ki=IC50/(1+[Tracer]/Kd).
On the technique in general: Time-resolved FRET reads energy transfer from a long-lived donor to a nearby acceptor.

Assay [1] deals with T1, DDR1 (Homo sapiens (Human), UniProt Q08345). Briefly: DDR1 binding assay (LanthaScreen Europium Kinase Binding assay). The procedure: as §1, §2
Assay [2] concerns the target T1, DDR1. Briefly: DDR1 cell based assay (PathHunter U2OS DDR1 assay). The following applies: U2OS-DDR1 cells, Type II Collagen stimulation, potency class. The protocol: The inhibition of DDR1 receptor activation by compounds was evaluated by PathHunter® U2OS DDR1 assay (Eurofins DiscoverX), according to the manufacturer's instructions. Briefly, U2OS-DDR1 cells were seeded in white 384-well plates at a density of 5000 cells/well and incubated for 2 hours at 37° C. and 5% CO2. Cells were then treated with compounds at different concentrations and incubated for 30 minutes, before stimulation with bovine Type II Collagen 20 μg/ml and incubation overnight at 37° C. and 5% CO2. PathHunter Detection Reagents were prepared according to the protocol provided by DiscoverX and 20 μl/well of this mix were added to each well. After incubating the plates for 1 hour at room temperature in the dark, luminescence signal was acquired with a plate reader. Raw data were normalized to vehicle control (0% for normalization) and positive control (100% for normalization; cells treated with 20 μg/ml collagen II) and IC50 parameters were calculated in GraphPad Prism 8.0 software, using sigmoidal dose-response curve fitting with variable slope.

Where [3] appears, read: potency class, read-out: Ki DDR2.
Where [4] appears, read: potency class, read-out: Ki DDR1.

Like-named read-outs stand apart in the source and are kept apart here.

T1 sequence (Q08345 19-913): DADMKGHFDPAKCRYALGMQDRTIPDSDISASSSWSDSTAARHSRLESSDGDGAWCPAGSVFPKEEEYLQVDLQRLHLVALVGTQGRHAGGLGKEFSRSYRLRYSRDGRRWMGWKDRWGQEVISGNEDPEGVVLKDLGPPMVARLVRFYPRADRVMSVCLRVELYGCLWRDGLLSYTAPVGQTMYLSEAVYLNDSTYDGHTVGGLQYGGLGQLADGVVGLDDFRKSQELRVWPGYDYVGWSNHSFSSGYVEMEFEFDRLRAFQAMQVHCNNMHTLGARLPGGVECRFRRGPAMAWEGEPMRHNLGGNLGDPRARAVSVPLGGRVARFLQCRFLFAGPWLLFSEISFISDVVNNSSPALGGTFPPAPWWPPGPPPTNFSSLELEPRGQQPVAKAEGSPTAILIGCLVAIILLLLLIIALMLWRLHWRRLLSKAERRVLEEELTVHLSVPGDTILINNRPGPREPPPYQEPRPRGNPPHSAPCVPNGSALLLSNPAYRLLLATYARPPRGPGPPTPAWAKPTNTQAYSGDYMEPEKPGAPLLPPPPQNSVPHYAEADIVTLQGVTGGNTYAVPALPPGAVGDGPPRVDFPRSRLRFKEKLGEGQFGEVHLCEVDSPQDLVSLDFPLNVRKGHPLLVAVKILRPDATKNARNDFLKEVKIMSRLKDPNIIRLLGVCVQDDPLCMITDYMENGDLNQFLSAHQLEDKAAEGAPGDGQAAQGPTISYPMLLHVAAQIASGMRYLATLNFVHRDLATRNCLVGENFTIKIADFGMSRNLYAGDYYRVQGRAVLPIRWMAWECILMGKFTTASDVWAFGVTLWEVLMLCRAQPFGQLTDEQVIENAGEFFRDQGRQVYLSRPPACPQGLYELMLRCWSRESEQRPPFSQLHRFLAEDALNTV
DDR2, sequence (Q16832 22-855): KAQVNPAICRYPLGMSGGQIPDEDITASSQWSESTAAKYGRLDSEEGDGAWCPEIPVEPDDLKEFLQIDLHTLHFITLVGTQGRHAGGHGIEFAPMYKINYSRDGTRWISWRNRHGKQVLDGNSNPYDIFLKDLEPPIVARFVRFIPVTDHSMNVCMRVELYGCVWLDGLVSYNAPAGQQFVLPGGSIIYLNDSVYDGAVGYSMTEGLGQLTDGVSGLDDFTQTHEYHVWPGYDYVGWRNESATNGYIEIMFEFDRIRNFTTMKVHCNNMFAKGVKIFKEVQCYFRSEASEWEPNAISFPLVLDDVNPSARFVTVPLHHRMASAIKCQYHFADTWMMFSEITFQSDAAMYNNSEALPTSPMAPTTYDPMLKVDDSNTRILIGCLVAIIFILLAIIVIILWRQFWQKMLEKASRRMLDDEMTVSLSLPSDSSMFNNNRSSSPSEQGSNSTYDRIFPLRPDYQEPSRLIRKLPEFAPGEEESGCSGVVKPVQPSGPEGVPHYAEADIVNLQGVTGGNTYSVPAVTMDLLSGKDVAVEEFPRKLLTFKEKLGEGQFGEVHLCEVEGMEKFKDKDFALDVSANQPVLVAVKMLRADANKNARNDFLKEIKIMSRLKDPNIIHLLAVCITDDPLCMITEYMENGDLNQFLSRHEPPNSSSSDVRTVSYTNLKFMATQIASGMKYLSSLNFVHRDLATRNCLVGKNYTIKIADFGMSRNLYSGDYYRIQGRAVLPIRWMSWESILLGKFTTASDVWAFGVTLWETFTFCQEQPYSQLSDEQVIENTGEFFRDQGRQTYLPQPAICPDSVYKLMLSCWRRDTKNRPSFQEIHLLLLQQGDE

Broadly, the Ki is a measure of affinity in units of concentration, obtained from inhibition or displacement. In general, IC50 refers to the concentration that gives 50% inhibition. The low end stands for inhibition by little substance, the high end for a need for much substance. In the case of `Nc1ncc(CN2CCc3c(C(=O)Nc4cncc(OC(F)(F)F)c4)csc3C2)cn1` [Example 60, 6-((2-aminopyrimidin-5-yl)methyl)-N-(5-(trifluoromethoxy)pyridin-3-yl)-4,5,6,7-tetrahydrothieno[2,3-c]pyridine-3-carboxamide], the Ki at DDR2 (setting [3]) and at DDR1 [1] (setting [4]) was < 25 nM each time. For the same compound, the IC50 against DDR1 [2] is < 25 nM.
Consider `O=C(Nc1ccc(F)c(C(F)(F)F)c1)c1csc2c1CCN(Cc1cncnc1)C2` [Example 8, N-(4-fluoro-3-(trifluoromethyl)phenyl)-6-(pyrimidin-5-ylmethyl)-4,5,6,7-tetrahydrothieno[2,3-c]pyridine-3-carboxamide], for which the Ki on DDR2 (setting [3]) and on DDR1 [1] (setting [4]) was < 25 nM in each case. Moreover, on DDR1 [2], the IC50 fell in the range of 50 to 80 nM.
As to `O=C(Nc1cccc(OC(F)F)c1)c1csc2c1CCN(Cc1cncnc1)C2` [Example 13, N-(3-(difluoromethoxy)phenyl)-6-(pyrimidin-5-ylmethyl)-4,5,6,7-tetrahydrothieno[2,3-c]pyridine-3-carboxamide], the Ki at DDR2 (setting [3]) and on DDR1 [1] (setting [4]) was < 25 nM throughout. For the same compound, the IC50 at DDR1 [2] was in the range of 50 to 80 nM.
With `CN1CCN(Cc2cc(NC(=O)c3csc4c3CCN(Cc3cncnc3)C4)cc(C(F)(F)F)c2)CC1` [Example 2, N-(3-((4-methylpiperazin-1-yl)methyl)-5-(trifluoromethyl)phenyl)-6-(pyrimidin-5-ylmethyl)-4,5,6,7-tetrahydrothieno[2,3-c]pyridine-3-carboxamide], the Ki lay within 50 to 80 nM on DDR2 (setting [3]) and 25 to 50 nM on DDR1 [1] (setting [4]). This compound also came in with a 50% inhibitory concentration (IC50) on DDR1 [2] of 50 to 80 nM.
For `Cc1cncc(CN2CCc3c(C(=O)Nc4cccc(C(F)(F)F)c4)csc3C2)c1` [Example 22, 6-((5-methylpyridin-3-yl)methyl)-N-(3-(trifluoromethyl)phenyl)-4,5,6,7-tetrahydrothieno[2,3-c]pyridine-3-carboxamide], the Ki at DDR2 (setting [3]) and on DDR1 [1] (setting [4]) was < 25 nM throughout. The compound also showed an IC50 against DDR1 [2] of 50 to 80 nM.
For the compound `CC(F)(F)c1cccc(NC(=O)c2csc3c2CCN(Cc2cncnc2)C3)c1` [Example 9, N-(3-(1,1-difluoroethyl)phenyl)-6-(pyrimidin-5-ylmethyl)-4,5,6,7-tetrahydrothieno[2,3-c]pyridine-3-carboxamide], the Ki on DDR2 (setting [3]) and at DDR1 [1] (setting [4]) was < 25 nM each time. Besides, at DDR1 [2], the IC50 was in the range of 50 to 80 nM.
For the compound `Nc1ncc(CN2CCc3c(C(=O)Nc4cncc(C(F)(F)F)c4)csc3C2)cn1` [Example 35, 6-((2-aminopyrimidin-5-yl)methyl)-N-(5-(trifluoromethyl)pyridin-3-yl)-4,5,6,7-tetrahydrothieno[2,3-c]pyridine-3-carboxamide], the results for the Ki on DDR2 (setting [3]) and at DDR1 [1] (setting [4]) were 25 to 50 nM and < 25 nM, respectively. This compound also yielded a half-maximal inhibitory concentration (IC50) against DDR1 [2] of 50 to 80 nM.
For `Cn1nc(C(C)(C)C)cc1NC(=O)c1csc2c1CCN(Cc1nccnc1N)C2` [Example 15, 6-((3-aminopyrazin-2-yl)methyl)-N-(3-(tert-butyl)-1-methyl-1H-pyrazol-5-yl)-4,5,6,7-tetrahydrothieno[2,3-c]pyridine-3-carboxamide], the inhibitory constant (Ki) at DDR2 (setting [3]) and at DDR1 [1] (setting [4]) was < 25 nM in each case. Also, the IC50 against DDR1 [2] lay in the range of 25 to 50 nM.
In the case of `Nc1ncc(CN2CCc3c(C(=O)Nc4ccc(Cl)c(C(F)(F)F)c4)csc3C2)cn1` [Example 61, 6-((2-aminopyrimidin-5-yl)methyl)-N-(4-chloro-3-(trifluoromethyl)phenyl)-4,5,6,7-tetrahydrothieno[2,3-c]pyridine-3-carboxamide], the Ki on DDR2 (setting [3]) and on DDR1 [1] (setting [4]) was < 25 nM throughout. In addition, the IC50 at DDR1 [2] is < 25 nM.
In the case of `COc1cncc(CN2CCc3c(C(=O)Nc4cncc(C(F)(F)F)c4)csc3C2)c1` [Example 32, 6-((5-methoxypyridin-3-yl)methyl)-N-(5-(trifluoromethyl)pyridin-3-yl)-4,5,6,7-tetrahydrothieno[2,3-c]pyridine-3-carboxamide], the Ki on DDR2 (setting [3]) and at DDR1 [1] (setting [4]) was < 25 nM throughout. In addition, the 50% inhibitory concentration (IC50) against DDR1 [2] is < 25 nM.
Consider `CNc1ncc(CN2CCc3c(C(=O)Nc4cc(F)cc(C(F)(F)F)c4)csc3C2)cn1` [Example 40, N-(3-fluoro-5-(trifluoromethyl)phenyl)-6-((2-(methylamino)pyrimidin-5-yl)methyl)-4,5,6,7-tetrahydrothieno[2,3-c]pyridine-3-carboxamide], for which the Ki at DDR2 (setting [3]) and at DDR1 [1] (setting [4]) was < 25 nM throughout. The IC50 on DDR1 [2] was < 25 nM.
For `Nc1ncc(CN2CCc3c(C(=O)Nc4cccc(C(F)(F)F)c4)csc3C2)cn1` [Example 28, 6-((2-aminopyrimidin-5-yl)methyl)-N-(3-(trifluoromethyl)phenyl)-4,5,6,7-tetrahydrothieno[2,3-c]pyridine-3-carboxamide], the Ki on DDR2 (setting [3]) and on DDR1 [1] (setting [4]) was < 25 nM each time. For the same compound, the IC50 at DDR1 [2] is < 25 nM.
Regarding `Nc1nccnc1CN1CCc2c(C(=O)Nc3cncc(C(F)(F)F)c3)csc2C1` [Example 36, 6-((3-aminopyrazin-2-yl)methyl)-N-(5-(trifluoromethyl)pyridin-3-yl)-4,5,6,7-tetrahydrothieno[2,3-c]pyridine-3-carboxamide], the Ki at DDR2 (setting [3]) and at DDR1 [1] (setting [4]) was < 25 nM each time. The half-inhibitory concentration (IC50) on DDR1 [2] was < 25 nM.
For the compound `CN(C)Cc1cc(NC(=O)c2csc3c2CCN(Cc2cnc(N)nc2)C3)cc(C(F)(F)F)c1` [Example 55, 6-((2-aminopyrimidin-5-yl)methyl)-N-(3-((dimethylamino)methyl)-5-(trifluoromethyl)phenyl)-4,5,6,7-tetrahydrothieno[2,3-c]pyridine-3-carboxamide], the Ki at DDR2 (setting [3]) and at DDR1 [1] (setting [4]) was < 25 nM each time. The same compound showed an IC50 against DDR1 [2] of 25 to 50 nM.
For `N#Cc1cc(NC(=O)c2csc3c2CCN(Cc2cncnc2)C3)cc(C(F)(F)F)c1` [Example 14, N-(3-cyano-5-(trifluoromethyl)phenyl)-6-(pyrimidin-5-ylmethyl)-4,5,6,7-tetrahydrothieno[2,3-c]pyridine-3-carboxamide], the Ki on DDR2 (setting [3]) and on DDR1 [1] (setting [4]) was < 25 nM each time. For the same compound, on DDR1 [2], the 50% inhibitory concentration (IC50) was < 25 nM.
`Cc1cn(-c2cc(NC(=O)c3cc4c(s3)CN(c3cncnc3)CC4)cc(C(F)(F)F)c2)cn1` [Example C2]: the Ki was found to be 50000 nM at DDR2 (read-out: DDR2 Ki) and 29000 nM on DDR1 [1] (read-out: DDR1 Ki).
As to `COc1ncncc1CN1CCc2c(C(=O)Nc3cc(CN4CC[C@@H](N(C)C)C4)cc(C(F)(F)F)c3)csc2C1` [Example 52, (R)-N-(3-((3-(dimethylamino)pyrrolidin-1-yl)methyl)-5-(trifluoromethyl)phenyl)-6-((4-methoxypyrimidin-5-yl)methyl)-4,5,6,7-tetrahydrothieno[2,3-c]pyridine-3-carboxamide], the Ki on DDR2 (setting [3]) and at DDR1 [1] (setting [4]) was < 25 nM throughout. Moreover, on DDR1 [2], the IC50 was in the range of 50 to 80 nM.
Regarding `O=C(Nc1cc(F)cc(OC(F)(F)F)c1)c1csc2c1CCN(Cc1cncnc1)C2` [Example 7, N-(3-fluoro-5-(trifluoromethoxy)phenyl)-6-(pyrimidin-5-ylmethyl)-4,5,6,7-tetrahydrothieno[2,3-c]pyridine-3-carboxamide], the Ki on DDR2 (setting [3]) and on DDR1 [1] (setting [4]) was < 25 nM in each case. Besides, at DDR1 [2], the IC50 was < 25 nM.
`CN(C)Cc1cc(NC(=O)c2csc3c2CCN(Cc2cnc(N)nc2)C3)cc(C(F)(F)F)n1` [Example 57, 6-((2-aminopyrimidin-5-yl)methyl)-N-(2-((dimethylamino)methyl)-6-(trifluoromethyl)pyridin-4-yl)-4,5,6,7-tetrahydrothieno[2,3-c]pyridine-3-carboxamide]: the inhibitory constant (Ki) at DDR2 (setting [3]) was 25 to 50 nM; at DDR1 [1] (setting [4]) it was < 25 nM. In addition, the IC50 on DDR1 [2] is 25 to 50 nM.
As to `CC(C)(c1cc(NC(=O)c2csc3c2CCN(Cc2cncnc2)C3)no1)C(F)(F)F` [Example 6, 6-(pyrimidin-5-ylmethyl)-N-(5-(1,1,1-trifluoro-2-methylpropan-2-yl)isoxazol-3-yl)-4,5,6,7-tetrahydrothieno[2,3-c]pyridine-3-carboxamide], the Ki at DDR2 (setting [3]) and at DDR1 [1] (setting [4]) was < 25 nM throughout. This compound had an IC50 against DDR1 [2] of 25 to 50 nM.
`Nc1ncccc1CN1CCc2c(C(=O)Nc3cc(F)cc(C(F)(F)F)c3)csc2C1` [Example 43, 6-((2-aminopyridin-3-yl)methyl)-N-(3-fluoro-5-(trifluoromethyl)phenyl)-4,5,6,7-tetrahydrothieno[2,3-c]pyridine-3-carboxamide]: the Ki at DDR2 (setting [3]) and at DDR1 [1] (setting [4]) was < 25 nM throughout. In addition, at DDR1 [2], the IC50 was < 25 nM.
Turning to `CN1CCN(Cc2cc(NC(=O)c3csc4c3CCN(c3cncnc3)C4)cc(C(F)(F)F)c2)CC1` [Example C1, N-(3-((4-methylpiperazin-1-yl)methyl)-5-(trifluoromethyl)phenyl)-6-(pyrimidin-5-yl)-4,5,6,7-tetrahydrothieno[2,3-c]pyridine-3-carboxamide], the Ki came out at 172 nM at DDR2 (read-out: DDR2 Ki) and 238 nM on DDR1 [1] (read-out: DDR1 Ki).
